The values below are quoted from earlier work in patent publication US20030133872A1, “Radiopharmaceutical agent for the treatment of early stage cancer” (priority 2001, published 2003).

The conditions of this data set: Woolfenden et al., Int. J. Nucl. Med. 10 (4), 251-256 (1983).

Regarding `[153Sm+3].[Cl-].[Cl-].[Cl-]` [^153Sm-chloride], the liver uptake entry is on record as “high liver uptake”.
